Measurements as given in ChEMBL document CHEMBL1157539, “Thousands of chemical starting points for antimalarial lead identification” (Nature, 2010).

System: Plasmodium falciparum
Assay: GSK_TCMDC: Inhibition of Plasmodium falciparum 3D7 in whole erythrocytes, using parasite LDH activity as an index of growth.
Format: functional, organism-based
Conditions: Plasmodium falciparum, 3D7

Row | Compound | XC50 [nM]
1 | CN(C)CCCNc1c2ccccc2nc2ccccc12 | 1040
2 | CCCCc1ccc(C(=O)Nc2ccc3nc(N4CCN(CC)CC4)cc(C)c3c2)cc1 | 905
3 | CCN(CC)CCN(Cc1ccc(-c2ccc(C(F)(F)F)cc2)cc1)C(=O)Cn1c(CCC2CCCCC2)nc(=O)c2ccccc21 | 1390
4 | O=C(Cn1c(CCc2cccc(F)c2F)cc(=O)c2ccccc21)N(Cc1ccc(-c2ccc(C(F)(F)F)cc2)cc1)C1CCN(CCN2CCOCC2)CC1 | 720
5 | Cc1ccc2c(=O)cc(CCc3cccc(F)c3F)n(CC(=O)N(Cc3ccc(-c4ccc(C(F)(F)F)cc4)cc3)C3CCN(C(C)C)CC3)c2n1 | 776
6 | Cc1[nH]cc(Br)c(=O)c1-c1ccc(Oc2ccc(OC(F)(F)F)cc2)cc1 | 325
7 | O=C(Nc1cccc(-c2nn3ncccc3c2-c2ccnc(Nc3ccc(N4CCOCC4)cc3)n2)c1)c1c(F)cccc1F | 158
8 | Cc1cccc2nc(-c3ccc(-c4cccc(CNCc5ccc(S(C)(=O)=O)cc5)c4)s3)[nH]c12 | 334
9 | O=C(CCC1CCCC1)N(Cc1ccc(-c2ccc(CNCCc3ccccc3)cc2)cc1)C1CCCNC1 (stereo not drawn) | 1220
10 | COc1ccc2c(NN=CC=Cc3ccccc3)ccnc2c1 | 770
11 | CC(C)Sc1ccc(Cl)cc1CON1C(=N)N=C(N)NC1(C)C | 3.2
12 | CS(=O)(=O)c1cccc(-c2cnc(N)c3cc(-c4ccc(F)cc4)ccc23)c1 | 903
13 | CC1CN(c2ccc(C(=O)NCC3CC3)cc2NC(=O)OCc2ccccc2)CC(C)O1 (stereo not drawn) | 1300
14 | CCOC(=O)NCC(=O)Nc1cccc(-c2cccc(-c3nc4cc(C(F)(F)F)ccc4[nH]3)c2)c1 | 626
15 | CCOCc1cn(CC(=O)c2ccc(-c3ccccc3)cc2)c(C)nc1=N | 319
16 | Cc1cc(NC2CCN(Cc3ccccc3)CC2)nc(NCCCCc2ccccc2)n1 | 383
17 | FC(F)(F)c1ccc2[nH]c(-c3ccc(-c4cccc(CN5CCC(CCN6CCCCC6)CC5)c4)cc3)nc2c1 | 153
18 | CC(=O)N[C@H](C(=O)Nc1cccc(-c2ccc(-c3nc4cccc(C)c4[nH]3)s2)c1)C(C)C | 760
19 | O=c1[nH]ccc2nc(N[C@@H]3CCNC3)nc(Nc3cccc(S(=O)(=O)N4CCOCC4)c3)c12 | 1230
20 | CC(C)N1CCN(C(CN2CCN(CCCOc3ccc4ccccc4c3)CC2)c2ccc(F)cc2)CC1 (stereo not drawn) | 581
21 | Cc1ccc(Nc2ccnc3ccc(C(F)(F)F)cc23)cc1O | 956
22 | CCCCCc1cc(O)c2c(c1)OC(C)(C)C=C2C1=CCN(Cc2ccsc2)CC1 | 964
23 | COc1ccc(C(=C(C)CC(C)C(=O)O)c2ccccc2)cc1 (stereo not drawn) | 845
24 | CCCOc1cc(OCCC)cc(-c2cc(=O)c3ccccc3[nH]2)c1 | 58.1
25 | CS(=O)(=O)CCNCc1nc(-c2ccc3c(=O)[nH]cnc3c2)cs1 | 1010

Row | Compound | XC50 [nM]
26 | Cc1ccc2c(=NN=Cc3ccc(N(C)C)cc3)cc(C)[nH]c2c1 | 881
27 | CC(C)(CNC(=O)/C=C/c1ccc(Cl)c(Cl)c1)CNc1cc(=O)c2ccccc2[nH]1 | 856
28 | C#CCCC(=O)Nc1cccc(-c2cccc(-c3nc4cccc(C)c4[nH]3)c2)c1 | 736
29 | O=C(Nc1ccc2c(c1)CCNCC2)Nc1ccc2ccccc2c1 | 622
30 | COC(=O)Cn1c2ccccc2c2c(N)c(C(=O)OC)c(C)nc21 | 938
31 | Cc1cc(NC(=O)c2coc3cc(F)c(N4CC(C)N(C)C(C)C4)cc23)cnc1-c1ccc(C#N)cc1 (stereo not drawn) | 695
32 | COc1ccc2nccc([C@@H](O)CN3CCC(NS(=O)(=O)c4cc5c(cc4Cl)SCC(=O)N5)CC3)c2c1 | 982
33 | O=c1cc(NCCCNC(c2ccccc2)c2ccc(Cl)c(Cl)c2)[nH]c2ccccc12 (stereo not drawn) | 1140
34 | COc1ccc(CNCc2ccc(-c3ccc(-c4nc5cccc(C)c5[nH]4)s3)cc2)cc1 | 180
35 | NC(=O)CCC(NC(=O)CNC(=O)Nc1cccc(C(F)(F)F)c1)C(=O)O (stereo not drawn) | 803
36 | CCCCCCN1CCCN(Cc2ccc(C(=O)Nc3cccc(CC)c3)cc2)CC1 | 670
37 | COc1cc2nc(C)nc(Nc3ccc(Cc4ccccc4)cc3)c2cc1OC | 730
38 | COc1ccc(C2CC(=O)C3=C(C2)NC(C)=C(C(=O)OC2CCCC2)C3c2ccc(O)cc2)cc1OC (stereo not drawn) | 565
39 | O=C(NC1CCC(CCN2CCc3ccc(-c4cnccn4)cc3CC2)CC1)c1cccc(-n2cccn2)c1 (stereo not drawn) | 899
40 | NCCCNc1nccc(N2CCc3ncnc(Nc4ccc(OCc5cccc(F)c5)c(Cl)c4)c3C2)n1 | 832
41 | CCOc1ccc2c(=NN=Cc3ccc(F)cc3)cc(C)[nH]c2c1 | 584
42 | CC(C)CNCc1ccc(-c2ccccc2CNC2CCN(Cc3ccccc3)CC2)cc1 | 565
43 | Nc1c(Cl)cc(C(O)CNCCCCCCOCCc2ccc(CO)s2)cc1Cl (stereo not drawn) | 1050
44 | CN1CCN(c2cc3c(cc2Cl)CCN3C(=O)Cc2ccc(NC(=O)Nc3cccc4ccccc34)cc2)CC1 | 973
45 | CC(C)CCOc1ccc(NC(=O)c2cccs2)cc1 | 514
46 | CC(C)(CNC(=O)[C@@H]1CCCN(CCOc2ccc(Cl)cc2)C1)c1nc(-c2ccc(Cl)c(O)c2)c(-c2ccncc2)[nH]1 | 881
47 | COc1cccc(C(=O)NCCc2cccc(Cl)c2)c1OCc1ccccc1 | 1260
48 | CC1(C)N=C(N)N=C(N)N1OCCCOc1cc(Cl)c(Cl)cc1Cl | 3.2
49 | CCOC(=O)c1cn(CC)c2cc(OCc3ccccc3)ccc2c1=O | 947
50 | COc1ccc(-c2cc(Nc3nc(-c4cccc(Cl)c4)nc4ccccc34)ccn2)cc1 | 727

Row | Compound | XC50 [nM]
51 | CCn1c(Cc2ccccc2)nnc1SCC(=O)N1c2ccccc2Sc2ccccc21 | 588
52 | FC(F)(F)c1cccc2c(NN=Cc3ccccc3)ccnc12 | 624
53 | COc1cccc([C@@H](CC(=O)Nc2cc(C(F)(F)F)ccc2OC)Nc2ccc(C#N)c3ccccc23)c1 | 993
54 | O=C(O)C[C@H](NC(=O)[C@@H]1CCCN1C(=O)c1cccc(-c2ccc(Cl)c(Cl)c2)c1)C(=O)O | 863
55 | O=C(NC1CCCCC1)N(Cc1ccc(-c2cccc(CNCc3ccc4c(c3)OCO4)c2)cc1)C1CCN(Cc2ccccc2)CC1 | 688
56 | COc1ccc(-c2cccc(NC(=O)c3ccc(Cl)cc3)c2)cc1CN(C)CCN(C)C | 776
57 | CCOc1cc2ncnc(Nc3ccc(OCc4c(F)cccc4F)c(OC)c3)c2cc1OCC | 821
58 | O=C(Nc1cc(Oc2ccc(O)cc2)cc([N+](=O)[O-])c1)c1cc(-c2ccc(F)cc2)no1 | 955
59 | CCCCCCCN1CC[C@@H](CCCc2ccnc3ccc(OCC4CCCNC4)cc23)[C@@H](CC)C1 (stereo partly drawn) | 625
60 | COC(=O)Cn1c(C2CCN(CC3CCN(C(=O)/C=C/c4ccc(Cl)c(Cl)c4)CC3)CC2)nc2ccccc21 | 1200
61 | CC1(C)NC(N)=NC(=N)N1OCCCO | 221
62 | c1cc(CN2CCCCC2)cc(OCCCNc2ccnc3ccccc23)c1 | 433
63 | CCCCN(CCCC)CCCCCCNc1c2ccccc2nc2ccccc12 | 776
64 | COc1ccc(CNCc2ccccc2)cc1-c1ccc(S(=O)(=O)NCCN2CCCC2)c(C)c1 | 856
65 | Nc1c2c(nc3ccc(Oc4ccc(Br)cc4Br)cc13)CCCC2 | 864
66 | Cc1nccn1CCNC(=O)CN1CCC2(CCC1=O)CC(=O)c1ccccc1O2 (stereo not drawn) | 802
67 | Nc1nc(N)c2c(Oc3ccc(Cl)c(Cl)c3)cccc2n1 | 871
68 | Cc1cccc(Nc2nc(N)c3ccccc3n2)c1 | 574
69 | CN(C)CCCNc1ncnc2c1[nH]c1ccc(F)cc12 | 732
70 | Cc1ccc(CCNCC(O)c2cccc(C(F)(F)F)c2)cc1 (stereo not drawn) | 868
71 | FC(F)(F)c1cnc(Sc2nnc(-c3ccncc3)o2)c(Cl)c1 | 272
72 | CCCCCCCc1ccc(-c2c(C)[nH]c(C)c(Cl)c2=O)cn1 | 361
73 | COc1ccc2nc(C)cc(Nc3ccc(Oc4ccc(Br)c5ccccc45)c(Cl)c3)c2c1 | 277
74 | O=C(/C=C/c1ccc(Cl)c(Cl)c1)N1CCC(CN2C3CCC2CC(c2c[nH]c4ccccc24)C3)CC1 (stereo not drawn) | 737
75 | CC(C)(C)OC(=O)NCc1ccc(Nc2nnc(-c3ccc(OCC(=O)NCc4ccc(C(C)(C)C)cc4)c([N+](=O)[O-])c3)o2)cc1 | 800

Row | Compound | XC50 [nM]
76 | CC(C)c1ccc(NC(=O)NC2CCN(CCCCCN(C)C(=O)/C=C/c3ccc(Cl)c(Cl)c3)C2)cc1 (stereo not drawn) | 830
77 | Cc1c[nH]c(CCNC(=O)c2cc(-c3ccc(Cl)cc3)cs2)n1 | 242
78 | Cc1cccc2nc(-c3ccc(-c4cccc(CNCc5ccccc5)c4)s3)[nH]c12 | 741
79 | O=C(NCCN1CCN(S(=O)(=O)c2ccc(OC3CCNCC3)c(Br)c2)CC1)c1ccc(Cl)c(Cl)c1 | 891
80 | O=C(NCCN1CCCCC1)N1CCCN(c2ncnc3cc(-c4ccccc4)sc23)CC1 | 231
81 | CC(C)N1CCN(C(CN2CCN(CCCOc3ccc(-c4ccccc4)cc3)CC2)c2ccc(F)cc2)CC1 (stereo not drawn) | 678
82 | Cc1nc(N)nc(N)c1OCCCCOc1ccccc1 | 53.5
83 | Oc1ccc2c(CNC3CCCCC3)c(O)ccc2c1CNC1CCCCC1 | 43.5
84 | O=C(c1ccc(Cl)cc1)N1CCOC(CCN2CCC(c3ccccc3)CC2)(c2ccc(Cl)c(Cl)c2)C1 (stereo not drawn) | 238
85 | Nc1cccc(CNCc2cccc(-c3ccc(-c4nc5cc(C(F)(F)F)ccc5[nH]4)cc3)c2)c1 | 360
86 | O=C(Nc1cccc(-c2cccc(-c3nc4cc(C(F)(F)F)ccc4[nH]3)c2)c1)c1ccc(=O)[nH]n1 | 656
87 | O=C(Nc1cccc(OC2CCN(Cc3ccccc3)CC2)c1)Nc1cccc([N+](=O)[O-])c1 | 783
88 | O=C(/C=C/c1ccc(Cl)c(Cl)c1)N1CCC(CN2CCC(c3c[nH]c4cnccc34)CC2)CC1 | 219
89 | COc1ccc(NC(=O)Nc2ccc(-c3ccncc3)c(C(F)(F)F)c2)cc1N1CCN(C)CC1 | 763
90 | COc1ccc(OC)c(C=CC(=O)NC2CCC(CN3CCC(c4c[nH]c5ccccc45)CC3)CC2)c1 (stereo not drawn) | 653
91 | Cc1cc(C2CCN(CCCCNC(=O)c3ccc(-c4ccc(C(F)(F)F)cc4)cc3)CC2)c(C)cc1OCCO | 885
92 | Cc1ccc(O)c(-c2cc(C(=O)Nc3ccc(S(=O)(=O)N4CCCCC4)cc3)[nH]n2)c1 | 805
93 | CCNc1cc(C(=O)N[C@@H](Cc2ccccc2)[C@H](O)CNCc2cccc(-n3ccnc3)c2)cc(N2CCCC2=O)c1 | 635
94 | CN1C(=O)C(=NN=C(S)N2CCOCC2)c2ccccc21 | 901
95 | CN1CCCC1CCCOC(=O)c1ccc(N)cc1 (stereo not drawn) | 916
96 | c1cc(CNCC2CCCO2)cc(-c2csc(-c3nc4ccccc4[nH]3)c2)c1 (stereo not drawn) | 1040
97 | CCC(CC)N1C(=O)C(c2ccccc2)(c2ccccc2)N=C1N | 805
98 | Nc1nc(O)c2c(n1)CCc1c(Br)cccc1-2 | 697
